Measurements taken from ChEMBL document CHEMBL3046358, “Multiple Pro-197 substitutions in the acetolactate synthase of rigid ryegrass (Lolium rigidum) and their impact on chlorsulfuron activity and plant growth” (Crop Prot, 2012).

Legend:
[1] = system: Lolium rigidum; test: Herbicidal activity against Lolium rigidum accession A09 assessed as fresh weight reduction applied at 1 times pre-emergence recommended rate applied in pots where terbufos had been incorporated into the soil relative to untreated control; assay type: functional; set-up: scale not given: the % may be the effect or the level left
[2] = molecular target: T1, Acetolactate synthase (Lolium rigidum) (UniProt A7XBP7); test: Resistance index, ratio of I50 for acetolactate synthase Ala-197/Ala-197 mutant in Lolium rigidum accession A16 leaves extracts to I50 for acetolactate synthase in Lolium rigidum accession A01 leaves extracts
T1 sequence (whole entry): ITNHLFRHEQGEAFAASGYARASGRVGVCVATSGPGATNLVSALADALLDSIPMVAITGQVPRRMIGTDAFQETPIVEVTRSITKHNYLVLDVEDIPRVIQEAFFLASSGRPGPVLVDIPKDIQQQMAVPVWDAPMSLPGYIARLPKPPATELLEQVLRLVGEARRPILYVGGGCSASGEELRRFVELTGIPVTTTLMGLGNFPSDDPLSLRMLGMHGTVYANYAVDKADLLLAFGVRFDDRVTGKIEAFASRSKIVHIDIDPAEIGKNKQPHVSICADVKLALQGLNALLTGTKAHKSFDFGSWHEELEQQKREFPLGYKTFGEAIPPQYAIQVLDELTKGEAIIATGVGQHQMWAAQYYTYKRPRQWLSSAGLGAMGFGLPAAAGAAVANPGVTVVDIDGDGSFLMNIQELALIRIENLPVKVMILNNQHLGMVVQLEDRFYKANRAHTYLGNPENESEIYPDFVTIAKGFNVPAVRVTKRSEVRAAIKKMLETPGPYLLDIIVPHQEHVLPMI

[3] = system: Lolium rigidum; test: Herbicidal activity against Lolium rigidum accession A08 assessed as emergence rate applied at 1 times pre-emergence recommended rate applied in pots where terbufos had been incorporated into the soil relative to untreated control; assay type: functional
[4] = system: Lolium rigidum; test: Herbicidal activity against Lolium rigidum accession A08 assessed as fresh weight reduction applied at 1 times pre-emergence recommended rate relative to untreated control; assay type: functional; set-up: scale not given: the % may be the effect or the level left
[5] = system: Lolium rigidum; test: Herbicidal activity against Lolium rigidum accession A03 assessed as emergence rate applied at 4 times pre-emergence recommended rate relative to untreated control; assay type: functional
[6] = system: Lolium rigidum; test: Herbicidal activity against Lolium rigidum accession A11 assessed as fresh weight reduction applied at 1 times pre-emergence recommended rate relative to untreated control; assay type: functional; set-up: scale not given: the % may be the effect or the level left
[7] = molecular target: T1, Acetolactate synthase (Lolium rigidum); test: Resistance index, ratio of I50 for acetolactate synthase Ala-197/Ala-197 mutant in Lolium rigidum accession A06 leaves extracts to I50 for acetolactate synthase in Lolium rigidum accession A01 leaves extracts
[8] = system: Lolium rigidum; test: Herbicidal activity against Lolium rigidum accession A05 assessed as emergence rate applied at 1 times pre-emergence recommended rate relative to untreated control; assay type: functional
[9] = system: Lolium rigidum; test: Herbicidal activity against Lolium rigidum accession A07 assessed as fresh weight reduction applied at 4 times pre-emergence recommended rate relative to untreated control; assay type: functional; set-up: scale not given: the % may be the effect or the level left
[10] = system: Lolium rigidum; test: Herbicidal activity against Lolium rigidum accession A01 assessed as emergence rate applied at 1 times pre-emergence recommended rate relative to untreated control; assay type: functional
[11] = system: Lolium rigidum; test: Herbicidal activity against Lolium rigidum accession A13 assessed as emergence rate applied at 4 times pre-emergence recommended rate relative to untreated control; assay type: functional
[12] = system: Lolium rigidum; test: Herbicidal activity against Lolium rigidum accession A06 assessed as emergence rate applied at 4 times pre-emergence recommended rate relative to untreated control; assay type: functional
[13] = system: Lolium rigidum; test: Herbicidal activity against Lolium rigidum accession A01 assessed as fresh weight reduction applied at 1 times pre-emergence recommended rate relative to untreated control; assay type: functional; set-up: scale not given: the % may be the effect or the level left
[14] = system: Lolium rigidum; test: Herbicidal activity against Lolium rigidum accession A09 assessed as emergence rate applied at 4 times pre-emergence recommended rate relative to untreated control; assay type: functional
[15] = system: Lolium rigidum; test: Herbicidal activity against Lolium rigidum accession A15 assessed as emergence rate applied at 4 times pre-emergence recommended rate relative to untreated control; assay type: functional
[16] = molecular target: T1, Acetolactate synthase (Lolium rigidum); test: Resistance index, ratio of I50 for acetolactate synthase Ser-197/Ser-197 mutant in Lolium rigidum accession A21 leaves extracts to I50 for acetolactate synthase in Lolium rigidum accession A01 leaves extracts
[17] = system: Lolium rigidum; test: Herbicidal activity against Lolium rigidum accession A03 assessed as fresh weight reduction applied at 1 times pre-emergence recommended rate applied in pots where terbufos had been incorporated into the soil relative to untreated control; assay type: functional; set-up: scale not given: the % may be the effect or the level left
[18] = system: Lolium rigidum; test: Herbicidal activity against Lolium rigidum accession A11 assessed as fresh weight reduction applied at 1 times pre-emergence recommended rate applied in pots where terbufos had been incorporated into the soil relative to untreated control; assay type: functional; set-up: scale not given: the % may be the effect or the level left
[19] = molecular target: Acetolactate synthase (Lolium rigidum, UniProt A7XBP7); test: Inhibition of acetolactate synthase Ala-197/Ala-197 mutant in Lolium rigidum accession A19 leaves extracts by acetolactate production assay; conditions: read-out: I50
[20] = system: Lolium rigidum; test: Herbicidal activity against Lolium rigidum accession A05 assessed as emergence rate applied at 1 times pre-emergence recommended rate applied in pots where terbufos had been incorporated into the soil relative to untreated control; assay type: functional
[21] = system: Lolium rigidum; test: Herbicidal activity against Lolium rigidum accession A14 assessed as fresh weight reduction applied at 4 times pre-emergence recommended rate relative to untreated control; assay type: functional; set-up: scale not given: the % may be the effect or the level left
[22] = system: Lolium rigidum; test: Herbicidal activity against Lolium rigidum accession A12 assessed as fresh weight reduction applied at 1 times pre-emergence recommended rate relative to untreated control; assay type: functional; set-up: scale not given: the % may be the effect or the level left
[23] = system: Lolium rigidum; test: Herbicidal activity against Lolium rigidum accession A10 assessed as fresh weight reduction applied at 1 times pre-emergence recommended rate relative to untreated control; assay type: functional; set-up: scale not given: the % may be the effect or the level left
[24] = system: Lolium rigidum; test: Herbicidal activity against Lolium rigidum accession A02 assessed as emergence rate applied at 1 times pre-emergence recommended rate relative to untreated control; assay type: functional
[25] = system: Lolium rigidum; test: Herbicidal activity against Lolium rigidum accession A03 assessed as fresh weight reduction applied at 1 times pre-emergence recommended rate relative to untreated control; assay type: functional; set-up: scale not given: the % may be the effect or the level left
[26] = system: Lolium rigidum; test: Herbicidal activity against Lolium rigidum accession A08 assessed as emergence rate applied at 1 times pre-emergence recommended rate relative to untreated control; assay type: functional
[27] = system: Lolium rigidum; test: Herbicidal activity against Lolium rigidum accession A12 assessed as emergence rate applied at 4 times pre-emergence recommended rate relative to untreated control; assay type: functional
[28] = system: Lolium rigidum; test: Herbicidal activity against Lolium rigidum accession A01 assessed as fresh weight reduction applied at 4 times pre-emergence recommended rate relative to untreated control; assay type: functional; set-up: scale not given: the % may be the effect or the level left
[29] = system: Lolium rigidum; test: Herbicidal activity against Lolium rigidum accession A09 assessed as fresh weight reduction applied at 1 times pre-emergence recommended rate relative to untreated control; assay type: functional; set-up: scale not given: the % may be the effect or the level left
[30] = system: Lolium rigidum; test: Herbicidal activity against Lolium rigidum accession A12 assessed as emergence rate applied at 1 times pre-emergence recommended rate applied in pots where terbufos had been incorporated into the soil relative to untreated control; assay type: functional
[31] = system: Lolium rigidum; test: Herbicidal activity against Lolium rigidum accession A10 assessed as fresh weight reduction applied at 1 times pre-emergence recommended rate applied in pots where terbufos had been incorporated into the soil relative to untreated control; assay type: functional; set-up: scale not given: the % may be the effect or the level left
[32] = molecular target: T2, Acetolactate synthase (Lolium rigidum, UniProt A7XBP7); test: Inhibition of acetolactate synthase in Lolium rigidum accession A01 leaves extracts by acetolactate production assay; conditions: read-out: I50
T2 sequence (A7XBP7 whole entry): T1 sequence (whole entry)

[33] = system: Lolium rigidum; test: Herbicidal activity against Lolium rigidum accession A13 assessed as fresh weight reduction applied at 1 times pre-emergence recommended rate applied in pots where terbufos had been incorporated into the soil relative to untreated control; assay type: functional; set-up: scale not given: the % may be the effect or the level left
[34] = system: Lolium rigidum; test: Herbicidal activity against Lolium rigidum accession A01 assessed as fresh weight reduction applied at 1 times pre-emergence recommended rate applied in pots where terbufos had been incorporated into the soil relative to untreated control; assay type: functional; set-up: scale not given: the % may be the effect or the level left
[35] = system: Lolium rigidum; test: Herbicidal activity against Lolium rigidum accession A15 assessed as fresh weight reduction applied at 4 times pre-emergence recommended rate relative to untreated control; assay type: functional; set-up: scale not given: the % may be the effect or the level left

Compound: COc1nc(C)nc(NC(=O)NS(=O)(=O)c2ccccc2Cl)n1 [CHLORSULFURON]
- Activity [1]: 94%
- Ratio [2]: 257
- Activity [3]: 91%
- Activity [4]: 9%
- Activity [5]: 1%
- Activity [6]: 54%
- Ratio [7]: 470
- Activity [8]: 97%
- Activity [9]: 49%
- Activity [10]: 2%
- Activity [11]: 1%
- Activity [12]: 84%
- Activity [13]: 98%
- Activity [14]: 1%
- Activity [15]: 2%
- Ratio [16]: 53
- Activity [17]: 99%
- Activity [18]: 97%
- IC50 [19]: 18.6 µM
- Activity [20]: 95%
- Activity [21]: 96%
- Activity [22]: 95%
- Activity [23]: 76%
- Activity [24]: 2%
- Activity [25]: 95%
- Activity [26]: 88%
- Activity [27]: 1%
- Activity [28]: 99%
- Activity [29]: 78%
- Activity [30]: 0%
- Activity [31]: 97%
- IC50 [32]: 30 nM
- Activity [33]: 100%
- Activity [34]: 99%
- Activity [35]: 98%
